Laboratory results from patent publication US20090306053A1, “Highly selective rho-kinase inhibitor” (priority 2005, published 2009).
pIC50: −log10 of the molar value.

Tests used:
Type in all cases: biochemical
ROCKII (Rho-kinase) = ROCKII (Rho-kinase) (Homo sapiens, UniProt O75116); test: Rho-kinase (ROCKII) assay according to Patent Document 1; design: key to Realative Inhibitory Activity ROCKII: relative ratio; ROCKII-inhibiting activity defined as 1.0; details: for Realative Inhibitory Activity ROCKII: ROCKII-inhibiting activity defined as 1.0 (reference); for pIC50: read-out: Kinase Inhibiting Activity (IC50) ROCKII
Protocol: An Rho-kinase assay was carried out according to the method described in Patent Document 1, and the concentration of a compound for inhibiting Rho-kinase activity by 50% (hereinafter referred to as “IC50 value”) was calculated.
(§1) The ROCKII-inhibiting activity of a compound to be tested was defined as 1.0, and the inhibitory activities of the compound against kinases (PKA, PKG, CaMKII, and AuroraA) other than ROCKII were calculated as relative ratios to the ROCKII-inhibiting activity, based on the IC50 values calculated using the above-described evaluation system.

Purified rat CaMKII [1] = test: CaMKII kinase assay (Kinase-Glo ATP consumption); details: relative ratio to ROCKII (=1.0), based on IC50 values
Protocol: (§2) Purified rat CaMKII (containing CaMKIIα and small amounts of β, γ, and δ isoforms, Upstate) was used to evaluate its activity to phosphorylate a substrate peptide (KKALRRQETVDAL, Upstate).
(§3) In a system of the total volume of 50 μL, the reaction of the above-mentioned enzyme (33 ng) was carried out at room temperature for 60 minutes in the presence of 50 mM of Tris-HCl (pH7.5), 10 mM of magnesium chloride, 2 mM of calcium chloride, 0.04 mg/mL of BSA, 16 μg/mL of purified bovine brain calmodulin (Sigma), 0.5 mM of DTT, 50 µM of the above peptide, and 1 μM of ATP. After the kinase reaction, the luminescence intensity corresponding to the amount of ATP in the reaction system was measured using a luciferase reagent (Kinase-Glo Luminescent Kinase Assay kit, Promega) with a chemiluminescence measurement apparatus (MicroLumat, Berthold Technologies). The amount of ATP consumed by the phosphorylation reaction was calculated by comparison with the luminescence intensity in the system when the kinase reaction was not carried out.
(§4) With this system, the kinase reaction was carried out in the presence of a compound at various concentrations, and the IC50 value of the compound was determined based on the resulting compound concentration-response curve for ATP consumption.
as §1

Purified rat CaMKII [2] = target: T1, Purified rat CaMKII (Rattus norvegicus, UniProt P11275); test: CaMKII kinase assay (Kinase-Glo ATP consumption); details: 1 μM ATP; read-out: Kinase Inhibiting Activity (IC50) CaMKII
T1 construct: purchased Upstate
Protocol: as §2, §3, §4, §1

ROCKII (Rho-kinase), sequence (O75116 whole entry, species assumed): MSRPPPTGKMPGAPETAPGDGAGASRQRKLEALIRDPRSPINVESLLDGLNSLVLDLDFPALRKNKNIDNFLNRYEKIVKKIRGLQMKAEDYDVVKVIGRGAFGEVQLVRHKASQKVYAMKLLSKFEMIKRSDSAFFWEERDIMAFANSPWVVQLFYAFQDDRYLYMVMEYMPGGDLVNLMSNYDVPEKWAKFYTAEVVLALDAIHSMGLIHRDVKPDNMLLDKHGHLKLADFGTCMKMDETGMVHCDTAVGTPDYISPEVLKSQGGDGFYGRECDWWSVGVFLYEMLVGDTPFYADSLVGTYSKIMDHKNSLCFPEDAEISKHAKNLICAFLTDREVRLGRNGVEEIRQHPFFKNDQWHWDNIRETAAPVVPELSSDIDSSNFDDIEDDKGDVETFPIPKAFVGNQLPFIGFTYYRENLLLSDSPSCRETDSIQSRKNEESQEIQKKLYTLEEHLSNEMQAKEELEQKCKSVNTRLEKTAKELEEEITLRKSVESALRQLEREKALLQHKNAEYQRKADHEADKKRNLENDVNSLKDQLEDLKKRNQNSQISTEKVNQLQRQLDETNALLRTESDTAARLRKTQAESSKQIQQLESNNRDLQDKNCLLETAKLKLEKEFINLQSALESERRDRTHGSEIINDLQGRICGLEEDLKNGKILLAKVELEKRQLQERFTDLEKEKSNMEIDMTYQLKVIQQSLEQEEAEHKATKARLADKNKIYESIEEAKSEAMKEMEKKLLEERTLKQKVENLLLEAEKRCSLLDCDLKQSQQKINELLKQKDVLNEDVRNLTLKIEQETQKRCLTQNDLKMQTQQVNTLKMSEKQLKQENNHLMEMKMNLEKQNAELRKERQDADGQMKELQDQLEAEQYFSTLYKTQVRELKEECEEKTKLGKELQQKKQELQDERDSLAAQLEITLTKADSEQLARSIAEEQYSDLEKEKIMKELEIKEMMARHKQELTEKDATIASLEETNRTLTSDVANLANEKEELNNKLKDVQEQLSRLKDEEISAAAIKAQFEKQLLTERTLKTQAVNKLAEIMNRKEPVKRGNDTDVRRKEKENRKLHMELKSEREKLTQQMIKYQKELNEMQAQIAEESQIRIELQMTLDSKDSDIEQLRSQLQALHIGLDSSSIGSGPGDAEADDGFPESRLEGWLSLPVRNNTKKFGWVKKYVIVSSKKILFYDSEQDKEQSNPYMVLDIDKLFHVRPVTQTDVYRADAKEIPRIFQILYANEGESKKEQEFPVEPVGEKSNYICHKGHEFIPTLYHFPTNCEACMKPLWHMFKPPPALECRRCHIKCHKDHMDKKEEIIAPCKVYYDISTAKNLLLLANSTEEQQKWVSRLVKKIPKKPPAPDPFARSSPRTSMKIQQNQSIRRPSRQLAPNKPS

Molecule	Realative Inhibitory Activity ROCKII (ROCKII (Rho-kinase))	pIC50 (ROCKII (Rho-kinase))	Realative Inhibitory Activity CaMKII (Purified rat CaMKII [1])	pIC50 (Purified rat CaMKII [2])
2-(S)-1-(4-fluoroisoquinoline-5-sulfonyl)-4-glycyl-2-methylhomopiperazine dihydrochloride [Example 1]	1	7.49	763	4.64
CNCC(=O)N1CCCN(S(=O)(=O)c2cccc3cncc(F)c23)[C@@H](C)C1.Cl.Cl [Example 2, 2-(S)-1-(4-fluoroisoquinoline-5-sulfonyl)-2-methyl-4-(N-methylglycyl)homopiperazine dihydrochloride]	1	7.54	890	4.57
